pKd: −log10 of the molar value.
What was measured:
NHERF2 PDZ 2 = molecular target: T1, NHERF2 PDZ 2 (Homo sapiens, UniProt Q15599); assay: Holdup assay, NHERF2-2; assay type: binding; conditions: for BI: PDZ domain NHERF2-2 (gene MPDZ, 9)
T1 construct: made in house; host or cells: E. coli
Protocol: (§1) The holdup assay was performed on a Tecan freedom Evo200 robot with 384-well plates in singlicate for the three 11-mer PTEN variants and the 13-mer PTEN peptide as described in [31, 32]. Briefly, prior to interaction assay, 2.5 μL of streptavidin resin was saturated in each well with 20 μL of biotinylated PBM peptides (42 μM) and then washed twice with an excess of free biotin, while the reference resin was incubated only with biotin. Right before the holdup experiment, the PDZ library was spiked with an internal standard of lysozyme. Then, the biotin- or PBM-saturated resin was incubated, each in a distinct well of a 384-well plate, with complete cell lysates diluted so that the concentration of the tag-PDZ present in the crude extract is adjusted at 4 μM. After a sufficient time to reach complex equilibrium (15 min.), a fast and mild filtration step is performed and the tag-PDZ concentrations were measured by capillary electrophoresis instrument (LabChip GXII, PerkinElmer, Massachusets, USA). Standard markers were used to convert migration time into molecular weight on the LabChip software and inappropriate molecular weight markers were corrected or excluded.
(§2) For filtered data, the BI was extracted with the following equation (Eq 1) that estimates the depleted fraction after superimposition of the sample and reference electropherograms: BI=Iref−Ilig/Iref (1) where Iref and Ilig are the intensities of the tag-PDZ peaks measured, for each PDZ domain/PBM peptide interaction pair, in the biotin reference and the PBM electropherograms, respectively.
(§3) BIs were transformed into dissociation constants (KD) using the following formula: KD=([PDZtot]−BI·[PDZtot])·([PBMtot]−BI·[PDZtot])/BI·[PDZtot] (2) where [PDZtot] and [PBMtot] correspond to the total concentrations of the PDZ domain (usually around 4 μM) and the PBM peptide used during the assay. Since the PBMtot concentration in the resin during the holdup assay parameter may differ from one peptide to another and remains unknown, it is impossible to directly convert BI values into KD constants. We systematically determined the KD constants for a subset of PDZ/PBM pairs by competitive FP. […] For each PBM, the average peptide concentration was calculated after outlier rejection based on the absolute distances from the median as compared to three times the standard deviation (3σ rule), with never more than 2 values rejected.

MPDZ-1 = assay: Holdup assay, MPDZ-1; assay type: binding, human
MAGI2-5 = MAGI2-5 (Homo sapiens, UniProt Q86UL8); assay: Holdup assay, MAGI2-5; assay type: binding
Chain of MAGI2-5 (Q86UL8 whole entry): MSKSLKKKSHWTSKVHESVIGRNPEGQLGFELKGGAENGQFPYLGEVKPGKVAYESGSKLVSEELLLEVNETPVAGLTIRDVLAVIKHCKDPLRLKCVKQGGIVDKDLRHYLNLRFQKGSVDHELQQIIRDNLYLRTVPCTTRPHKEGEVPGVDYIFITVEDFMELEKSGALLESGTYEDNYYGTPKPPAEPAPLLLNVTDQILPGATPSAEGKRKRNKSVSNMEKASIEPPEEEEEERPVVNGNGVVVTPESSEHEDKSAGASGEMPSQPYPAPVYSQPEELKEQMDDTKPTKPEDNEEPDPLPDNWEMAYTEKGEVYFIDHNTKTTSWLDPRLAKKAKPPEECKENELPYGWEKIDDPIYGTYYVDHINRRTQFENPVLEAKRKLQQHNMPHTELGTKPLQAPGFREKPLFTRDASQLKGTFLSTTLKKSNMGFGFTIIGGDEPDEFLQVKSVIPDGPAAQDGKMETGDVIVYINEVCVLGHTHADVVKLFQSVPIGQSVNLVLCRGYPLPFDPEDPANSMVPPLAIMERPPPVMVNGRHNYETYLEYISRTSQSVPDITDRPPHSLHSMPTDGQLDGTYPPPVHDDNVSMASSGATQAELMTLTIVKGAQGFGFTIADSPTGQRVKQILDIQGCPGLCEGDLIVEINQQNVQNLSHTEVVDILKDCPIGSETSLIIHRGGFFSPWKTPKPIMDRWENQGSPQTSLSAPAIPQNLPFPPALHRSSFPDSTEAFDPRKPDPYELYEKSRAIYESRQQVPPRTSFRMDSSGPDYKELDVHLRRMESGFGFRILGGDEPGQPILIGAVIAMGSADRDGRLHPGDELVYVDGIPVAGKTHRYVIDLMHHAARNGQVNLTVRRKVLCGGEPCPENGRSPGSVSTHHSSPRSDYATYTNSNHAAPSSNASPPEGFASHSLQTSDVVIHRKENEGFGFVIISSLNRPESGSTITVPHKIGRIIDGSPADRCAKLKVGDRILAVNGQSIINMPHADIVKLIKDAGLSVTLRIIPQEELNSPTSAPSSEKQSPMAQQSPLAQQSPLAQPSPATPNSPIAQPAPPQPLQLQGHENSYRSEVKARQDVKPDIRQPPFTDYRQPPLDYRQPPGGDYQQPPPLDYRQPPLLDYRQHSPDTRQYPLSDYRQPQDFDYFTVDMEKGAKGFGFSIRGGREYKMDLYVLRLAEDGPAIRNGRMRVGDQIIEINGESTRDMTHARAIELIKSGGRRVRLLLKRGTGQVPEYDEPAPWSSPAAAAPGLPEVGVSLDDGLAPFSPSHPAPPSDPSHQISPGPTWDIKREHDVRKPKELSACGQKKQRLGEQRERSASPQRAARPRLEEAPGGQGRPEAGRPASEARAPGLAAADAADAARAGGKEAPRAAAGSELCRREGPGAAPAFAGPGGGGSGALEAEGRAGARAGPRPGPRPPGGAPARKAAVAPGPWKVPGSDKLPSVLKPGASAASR

DLG5-3 = assay: Holdup assay, DLG5-3; assay type: binding, human
MAGI2 PDZ 2 = molecular target: T2, MAGI2 PDZ 2 (Homo sapiens, UniProt Q86UL8); assay: Holdup assay, MAGI2-2; assay type: binding; conditions: for BI: MAGI2-2
T2 construct: made in house; host or cells: E. coli
T2 sequence (Q86UL8 426-510 limits assumed): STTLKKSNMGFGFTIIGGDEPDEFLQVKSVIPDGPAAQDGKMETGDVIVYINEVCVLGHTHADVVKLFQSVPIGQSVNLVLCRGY
Protocol: as §1, §2, §3

ARHGEF11-1 = molecular target: T3, ARHGEF11-1 (Homo sapiens, UniProt O15085); assay: Holdup assay, ARHGEF11-1; assay type: binding
T3 sequence (O15085 47-126): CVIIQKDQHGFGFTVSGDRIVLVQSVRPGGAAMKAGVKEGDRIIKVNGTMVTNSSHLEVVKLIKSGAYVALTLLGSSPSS

HTRA2-1 = assay: Holdup assay, HTRA2-1; assay type: binding, human
INTU-1 = assay: Holdup assay, INTU-1; assay type: binding, human
MAST4-1 = assay: Holdup assay, MAST4-1; assay type: binding, human
DLG3-2 = molecular target: T4, DLG3-2 (Homo sapiens, UniProt Q92796); assay: Holdup assay, DLG3-2; assay type: binding
T4 sequence (Q92796 244-330): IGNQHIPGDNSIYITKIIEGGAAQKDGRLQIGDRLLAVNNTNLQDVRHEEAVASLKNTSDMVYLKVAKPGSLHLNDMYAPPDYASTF

SCRIB-3 = molecular target: T5, SCRIB-3 (Homo sapiens, UniProt Q14160); assay: Holdup assay, SCRIB-3; assay type: binding; conditions: for BI: PDZ domain SCRIB-3
T5 construct: Representative holdup data recorded for three PDZ domains (MAST2-1, HTRA1-1, SCRIB-3); made in house; host or cells: E. coli
T5 sequence (Q14160 1004-1093 limits assumed): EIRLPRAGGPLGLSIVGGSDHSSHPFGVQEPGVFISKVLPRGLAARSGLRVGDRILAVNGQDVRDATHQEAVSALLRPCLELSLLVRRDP
Protocol: as §1, §2

LIN7B-1 = assay: Holdup assay, LIN7B-1; assay type: binding, human
PTPN13 PDZ 2 = molecular target: T6, PTPN13 PDZ 2 (Homo sapiens, UniProt Q12923); assay: Holdup assay, PTPN13-2; assay type: binding; conditions: PDZ domain PTPN13-2
T6 construct: made in house; host or cells: E. coli
T6 sequence (Q12923 1368-1452 limits assumed): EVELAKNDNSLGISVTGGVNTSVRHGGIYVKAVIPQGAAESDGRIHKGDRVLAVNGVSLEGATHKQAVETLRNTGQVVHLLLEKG
Protocol: as §1, §2, §3

LNX2-1 = assay: Holdup assay, LNX2-1; assay type: binding, human
GRIP1-2 = assay: Holdup assay, GRIP1-2; assay type: binding, human
MAGI1-1 = assay: Holdup assay, MAGI1-1; assay type: binding, human
MAST2 PDZ 1 = molecular target: T7, MAST2 PDZ 1 (Homo sapiens, UniProt Q6P0Q8); assay: Holdup assay, MAST2-1; assay type: binding
T7 construct: made in house; host or cells: E. coli
T7 sequence (Q6P0Q8 1104-1192 limits assumed): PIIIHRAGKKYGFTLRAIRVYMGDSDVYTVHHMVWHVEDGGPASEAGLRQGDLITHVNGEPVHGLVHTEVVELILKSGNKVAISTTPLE
Protocol: as §1, §2, §3

LRRC7-1 = LRRC7-1 (Homo sapiens, UniProt Q96NW7); assay: Holdup assay, LRRC7-1; assay type: binding
Chain of LRRC7-1 (Q96NW7 with tags, fused parts or gaps): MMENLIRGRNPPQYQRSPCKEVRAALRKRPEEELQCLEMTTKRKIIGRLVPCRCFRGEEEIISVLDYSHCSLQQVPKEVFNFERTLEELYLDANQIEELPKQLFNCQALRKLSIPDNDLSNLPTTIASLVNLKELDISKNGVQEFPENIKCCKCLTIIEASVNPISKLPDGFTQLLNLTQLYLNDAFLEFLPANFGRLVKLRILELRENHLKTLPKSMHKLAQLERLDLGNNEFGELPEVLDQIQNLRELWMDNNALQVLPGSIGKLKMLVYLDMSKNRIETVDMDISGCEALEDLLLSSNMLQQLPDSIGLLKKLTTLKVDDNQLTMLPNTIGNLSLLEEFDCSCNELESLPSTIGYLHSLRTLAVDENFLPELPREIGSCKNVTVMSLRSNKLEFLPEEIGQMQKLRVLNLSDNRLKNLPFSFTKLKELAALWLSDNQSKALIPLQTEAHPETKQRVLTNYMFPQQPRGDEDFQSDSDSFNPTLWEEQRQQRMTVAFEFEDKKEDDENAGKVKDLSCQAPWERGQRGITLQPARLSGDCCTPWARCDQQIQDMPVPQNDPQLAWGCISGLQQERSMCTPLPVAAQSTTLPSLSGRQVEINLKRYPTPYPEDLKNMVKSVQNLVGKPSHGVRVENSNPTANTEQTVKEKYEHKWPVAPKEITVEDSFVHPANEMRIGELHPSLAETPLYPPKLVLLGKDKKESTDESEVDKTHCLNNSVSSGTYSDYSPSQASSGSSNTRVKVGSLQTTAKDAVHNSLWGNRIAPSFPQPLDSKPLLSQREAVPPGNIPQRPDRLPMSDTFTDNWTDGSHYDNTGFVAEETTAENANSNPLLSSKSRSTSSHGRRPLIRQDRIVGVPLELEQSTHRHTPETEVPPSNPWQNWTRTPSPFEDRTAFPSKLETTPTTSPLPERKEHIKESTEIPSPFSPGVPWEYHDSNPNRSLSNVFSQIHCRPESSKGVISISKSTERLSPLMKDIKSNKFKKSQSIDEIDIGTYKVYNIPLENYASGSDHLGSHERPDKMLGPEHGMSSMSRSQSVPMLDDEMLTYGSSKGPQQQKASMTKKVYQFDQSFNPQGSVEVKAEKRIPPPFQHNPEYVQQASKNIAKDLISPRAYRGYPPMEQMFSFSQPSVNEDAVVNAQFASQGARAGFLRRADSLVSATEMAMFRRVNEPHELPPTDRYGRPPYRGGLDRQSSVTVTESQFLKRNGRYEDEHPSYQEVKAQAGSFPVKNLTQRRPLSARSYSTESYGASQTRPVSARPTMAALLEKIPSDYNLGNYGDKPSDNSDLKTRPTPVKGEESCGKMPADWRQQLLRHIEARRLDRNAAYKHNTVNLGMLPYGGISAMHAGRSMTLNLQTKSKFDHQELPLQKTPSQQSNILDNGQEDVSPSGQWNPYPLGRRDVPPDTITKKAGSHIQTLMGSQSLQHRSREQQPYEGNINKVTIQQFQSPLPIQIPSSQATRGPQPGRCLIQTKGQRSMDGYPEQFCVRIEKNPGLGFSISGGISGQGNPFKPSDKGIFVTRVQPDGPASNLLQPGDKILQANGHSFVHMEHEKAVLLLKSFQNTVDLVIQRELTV

DLG3-3 = assay: Holdup assay, DLG3-3; assay type: binding, human
GRIP2-3 = assay: Holdup assay, GRIP2-3; assay type: binding, human
FRMPD3-1 = assay: Holdup assay, FRMPD3-1; assay type: binding, human
HTRA4-1 = assay: Holdup assay, HTRA4-1; assay type: binding, human

T1 sequence (Q15599 150-230 limits assumed): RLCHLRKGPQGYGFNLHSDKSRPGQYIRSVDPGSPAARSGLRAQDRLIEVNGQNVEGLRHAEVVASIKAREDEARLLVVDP

For `CC[C@H](C)[C@H](NC(=O)[C@H](CCC(N)=O)NC(=O)[C@@H](NC(=O)[C@H](Cc1c[nH]cn1)NC(=O)[C@H](CCC(N)=O)NC(=O)[C@H](CC(=O)O)NC(=O)[C@H](CCC(=O)O)NC(=O)[C@H](CC(=O)O)NC(=O)CCC(=O)NCCCOCCOCCOCCCNC(=O)CCCC[C@@H]1SC[C@@H]2NC(=O)N[C@@H]21)[C@@H](C)O)C(=O)N[C@H](C(=O)N[C@@H](CCCCN)C(=O)N[C@H](C(=O)O)C(C)C)[C@@H](C)O` [PTEN_11], the pKd (NHERF2 PDZ 2) was 4.45, the BI (NHERF2 PDZ 2) was 0.476 and the BI (MPDZ-1) was 0.039. It also gave a LogKD (MPDZ-1) of 3.519, a BI (MAGI2-5) of 0.214 and a pKd (MAGI2-5) of 3.91. The BI (DLG5-3) was 0.034, the LogKD (DLG5-3) was 3.519 and the BI (MAGI2 PDZ 2) was 0.18. The BI (ARHGEF11-1) was 0.026, the LogKD (ARHGEF11-1) was 3.519 and the BI (HTRA2-1) was 0.07. It also gave a LogKD (HTRA2-1) of 3.519, a BI (INTU-1) of -0.089 and a LogKD (INTU-1) of 3.519. The BI (MAST4-1) was -0.08, the LogKD (MAST4-1) was 3.519 and the BI (DLG3-2) was 0.13. The BI (SCRIB-3) was 0.058, the “BI (binding intensity)” value (SCRIB-3; SCRIB-3, holdup, singlicate) was 0.02 and the BI (LIN7B-1) was -0.046. It also gave a LogKD (LIN7B-1) of 3.519, a BI (PTPN13 PDZ 2) of 0.184 and a BI (LNX2-1) of 0.094. It also gave a LogKD (LNX2-1) of 3.519, a BI (GRIP1-2) of 0.006 and a LogKD (GRIP1-2) of 3.519. It also gave a BI (MAGI1-1) of 0.001, a LogKD (MAGI1-1) of 3.519 and a pKd (MAST2 PDZ 1) of 4.90. The BI (MAST2 PDZ 1; MAST2-1) was 0.711, the “BI (binding intensity)” value (MAST2 PDZ 1; MAST2-1, holdup, singlicate, 0.00 no binding to 1.00 strong binding) was 0.71 and the BI (LRRC7-1) was 0.078. The LogKD (LRRC7-1) was 3.519, the BI (DLG3-3) was -0.011 and the LogKD (DLG3-3) was 3.519. For the same compound, the BI (GRIP2-3) was 0.054, the LogKD (GRIP2-3) was 3.519 and the BI (FRMPD3-1) was -0.078. It also gave a LogKD (FRMPD3-1) of 3.519, a BI (HTRA4-1) of 0.062 and a LogKD (HTRA4-1) of 3.519.
In the case of `CC[C@H](C)[C@H](NC(=O)[C@H](CCC(N)=O)NC(=O)[C@@H](NC(=O)[C@H](Cc1c[nH]cn1)NC(=O)[C@H](CCC(N)=O)NC(=O)[C@H](CC(=O)O)NC(=O)[C@H](CCC(=O)O)NC(=O)[C@H](CC(=O)O)NC(=O)CCC(=O)NCCCOCCOCCOCCCNC(=O)CCCC[C@@H]1SC[C@@H]2NC(=O)N[C@@H]21)[C@@H](C)O)C(=O)N[C@H](C(=O)N[C@@H](CCCCNC(C)=O)C(=O)N[C@H](C(=O)O)C(C)C)[C@@H](C)O` [PTEN_Ac], the BI (NHERF2 PDZ 2) was 0.066, the BI (MPDZ-1) was 0.074 and the LogKD (MPDZ-1) was 3.605. The BI (MAGI2-5) was 0.148, the BI (DLG5-3) was -0.047 and the LogKD (DLG5-3) was 3.605. For the same compound, the pKd (MAGI2 PDZ 2) was 4.26, the BI (MAGI2 PDZ 2) was 0.325 and the BI (ARHGEF11-1) was 0.428. It also gave a pKd (ARHGEF11-1) of 4.45, a BI (HTRA2-1) of -0.074 and a LogKD (HTRA2-1) of 3.605. For the same compound, the BI (INTU-1) was 0.042, the LogKD (INTU-1) was 3.605 and the BI (MAST4-1) was -0.003. For the same compound, the LogKD (MAST4-1) was 3.605, the BI (DLG3-2) was 0.445 and the pKd (DLG3-2) was 4.49. The BI (SCRIB-3) was -0.053, the BI (LIN7B-1) was -0.004 and the LogKD (LIN7B-1) was 3.605. The BI (PTPN13 PDZ 2) was 0.044, the BI (LNX2-1) was 0 and the LogKD (LNX2-1) was 3.605. It also gave a BI (GRIP1-2) of -0.02, a LogKD (GRIP1-2) of 3.605 and a BI (MAGI1-1) of 0.034. It also gave a LogKD (MAGI1-1) of 3.605, a pKd (MAST2 PDZ 1) of 5.39 and a BI (MAST2 PDZ 1; MAST2-1) of 0.858. It also gave a BI (LRRC7-1) of -0.028, a LogKD (LRRC7-1) of 3.605 and a BI (DLG3-3) of -0.04. For the same compound, the LogKD (DLG3-3) was 3.605, the BI (GRIP2-3) was 0.055 and the LogKD (GRIP2-3) was 3.605. For the same compound, the BI (FRMPD3-1) was -0.12, the LogKD (FRMPD3-1) was 3.605 and the BI (HTRA4-1) was -0.059. It also gave a LogKD (HTRA4-1) of 3.605.

From publication PMC7774954, “Interactomic affinity profiling by holdup assay: Acetylation and distal residues impact the PDZome-binding specificity of PTEN phosphatase” (PLoS ONE, 2020)
